# Data from paper PMC7396449, “Biochemical determinants of the IGFBP‐3–hyaluronan interaction” (FEBS Open Bio, 2020).
# Ends that are not written are not given here.
# Tests used:
# [1] = molecular target: binding of biotin‐HA to immobilized IGFBP‐3; assay: ELISA, competition of CD44 with IGFBP-3 for binding HA; set-up: species or system human; details: for IC50: 10 nM glycosylated IGFBP-3 coated, biotin-HA 100 nM incubated 1 h with CD44 0–1000 nM, mean ± SD of three independent experiments in triplicate, read-out: concentration of CD44 that produced 50% of maximum binding (50% inhibition of biotin-HA binding to IGFBP-3)
# Procedure: ELISA was conducted as we reported previously. Nunc MaxiSorp 96‐well flat‐bottom plates (Thermo Fisher, Waltham, MA, USA) were coated with samples as indicated. The plates were incubated overnight at 4 °C on a shaker to allow binding of the samples to the plate wells. After the incubation, the wells were washed 4× with TBST, filled with 400 µL blocking buffer (110 mM KCl, 5 mM NaHCO3, 5 mM MgCl2, 1 mM EGTA, 0.1 mM CaCl2, 20 mM HEPES, 1% BSA, pH 7.4), and incubated overnight at 4 °C on a shaker. The wells were then washed 4× with TBST, and 100 µL of sample at the desired concentration was added to each well before incubating overnight at 4 °C on a shaker. TBST was then used to wash the wells 4× before proceeding in one of two ways: (a) Biotinylated samples were analyzed by adding 100 µL streptavidin–HRP conjugate in TBST (1 : 2500 dilution) to the samples before incubating for 3 h at RT on a shaker, or (b) samples without biotin were analyzed by adding 100 µL TBST containing the primary antibody at the manufacturer's recommendation and incubating for 3 h at RT on a shaker before washing 4× with TBST. The secondary antibody in 100 µL TBST was then added to the samples following the manufacturer's recommendation and incubated for 1 h at RT on a shaker. Plates containing either biotinylated or nonbiotinylated samples were then washed 5× with TBST followed by the addition of 100 µL TMB resulting in a blue color change. The reaction was stopped with 100 µL 2 M H2SO4 after incubating at RT for 0.5–15 min, resulting in a yellow color change that was measured by absorbance at 450 nm. To monitor nonspecific binding, negative control wells on the plates included, for example, bound IGFBP‐3 then adding all components, streptavidin–horseradish peroxidase and TMB, but without addition of biotin‐HN. Some wells were coated with 2.5, 10, 50, 100, 500, and 5000 nM biotin‐HN or biotin‐HA to allow conversion of the OD measurements to concentrations of bound material. Before analysis, the OD from the data was corrected for nonspecific binding by subtracting the mean background absorbance for the negative controls. Typically, in control wells incubated on each plate, the background binding is about 10–15% of the maximum binding seen with addition of biotin‐HN or biotin‐HA or antibodies. Statistical analysis was determined by the GRAPHPAD PRISM 8.4.2 software (San Diego, CA, USA). Data were expressed as the mean ± SD. Three to five independent experiments were carried out in triplicate for each assay condition.
# Glycosylated recombinant His‐tagged IGFBP‐3 (Speed BioSystems) and nonglycosylated recombinant IGFBP‐3 (MyBioSource, San Diego, CA, USA) were used as reported earlier. Glycosylated human CD44 recombinant protein was purchased from Sino Biological (Wayne, PA, USA). To cleave N‐linked glycans, the proteins were treated with PNGase F for 4 h at 37 °C under nondenaturing conditions according to the manufacturer's specification. To reduce the proteins and following previous protocols, the purified proteins were reduced with TCEP‐HCl (2.5 mM in PBS/1%BSA for 20 min at 4 °C) and then alkylated by 5 mM NEM for 30 min at 4 °C, to permanently block disulfide bond formation. As control, nonreduced samples treated with only 5 mM NEM were used. […]
# [2] = test system: IGFBP‐3 interaction with importin‐β1; details: in vitro; cited from earlier work
# From the text: (§1) Humanin (HN), first discovered by the Nishimoto laboratory, is a mitochondrial‐derived peptide known to bind with high affinity and specificity to the 18‐amino acid residue (215–232) heparin‐binding domain of IGFBP‐3 [54] that also binds HA.
# amyloid‐β = details: aggregation induced by acetylcholinesterase; cited from earlier work
# From the text: as §1
# [3] = test system: A549 human NSCLC cells (CD44-expressing); assay: MTT cell viability, A549; assay type: cell-based; details: protein 50 nM, 48 h, with or without 5F12
# Procedure: (§2) HFL1 (ATCC CCL‐153) normal, nontransformed, and nontumorigenic human fibroblast cell line and the human NSCLC cell line, A549 (ATCC CCL‐185), were purchased from the American Type Culture Collection (ATCC, Manassas, VA, USA). Cells were seeded as we reported earlier in 5 mL HyClone Dulbecco's modified Eagle's medium/nutrient mixture F‐12 (DMEM/F12) (GE Healthcare Life Sciences, Pittsburgh, PA, USA), supplemented with 10% Fetalgro bovine growth serum (FBS; RMBIO, Missoula, MT, USA), 50 U·mL^−1 penicillin, and 50 U·mL^−1 streptomycin (Invitrogen Life Technologies, Carlsbad, CA, USA) in 25‐cm^2 tissue culture flasks, and allowed to grow overnight in an incubator at 37 °C, 95% humidity, and 5% CO2. Cells were counted with a hemocytometer after trypan blue staining.
# (§3) The MTT reduction assay (Sigma‐Aldrich), used to measure cell viability, was employed as we reported earlier. […] The absorbance was measured at 570 nm in a plate reader. […]
# (§4) (A) IGFBP‐3 peptides (50 nM each) were bound to the ELISA plate wells, and then, 200 nM biotin‐HA was added and processed as described in the Materials and methods section. The data were normalized to the control incubated with BSA (control 1), and fold change relative to the control was calculated. […] Cell viability was assessed by the MTT assay. […]
# [4] = test system: HFL1 normal human fibroblast cells (CD44-negative); assay: MTT cell viability, HFL1; assay type: cell-based; details: protein 50 nM, 48 h, with or without 5F12
# Procedure: as §2, §3, §4
# [5] = after reduction; cited from earlier work
# From the text: We next tested whether reduction of CD44 affects its ability to compete with IGFBP‐3 for binding HA. […] Reduction of this bond inhibited HA‐CD44 interaction in vitro, and the ability of cells to adhere to HA‐coated surfaces was blocked by pretreatment with reducing agents. Moreover, reductio ...
substance,measurement,setting,value
"CD44 Glycosylated/Reduced: glycosylated CD44, reduced with TCEP-HCl then alkylated by NEM",IC50,[1],210 ± 41 nM
CD44 Glycosylated: Glycosylated human CD44 recombinant protein (Sino Biological),IC50,[1],128 ± 24 nM
"CD44 Nonglycosylated/Reduced: PNGase F treated CD44, reduced with TCEP-HCl then alkylated by NEM",IC50,[1],176 ± 37 nM
CD44 Nonglycosylated: human recombinant CD44 treated with PNGase F to cleave N-linked glycans,ability of CD44 to block HA-IGFBP-3 interaction (in words),"[1]; 10 nM IGFBP-3 coated, biotin-HA 100 nM",more efficient at inhibiting the binding of biotin‐HA to immobilized IGFBP‐3 than glycosylated CD44
same,IC50,[1],9 ± 2 nM
"HN: mitochondrial-derived peptide binding the 18-amino acid residue (215–232) heparin-binding domain of IGFBP-3 (MAPRGFSCLLLLTSEIDLPVKRRA-NH2; UniProt Q8IVG9 1-24, looked up)",effect on IGFBP-3–importin-β1 interaction (in words),[2],blocks its interaction with importin‐β1 in vitro
same,effect on amyloid-β aggregation (in words),amyloid‐β,aggregation of amyloid‐β induced by acetylcholinesterase is blocked by the presence of HN
glycosylated IGFBP‐3 protein: Glycosylated recombinant His-tagged IGFBP-3 (Speed BioSystems),"A549 cell viability, IGFBP-3 proteins (in words)",[3],a comparable decrease in A549 cell viability
same,"HFL1 cell viability, IGFBP-3 proteins (in words)",[4],lack of effect
nonglycosylated IGFBP‐3 protein: nonglycosylated recombinant IGFBP-3 (MyBioSource),"A549 cell viability, IGFBP-3 proteins (in words)",[3],a comparable decrease in A549 cell viability
same,"HFL1 cell viability, IGFBP-3 proteins (in words)",[4],lack of effect
recombinant soluble CD44: recombinant soluble CD44 of ref 47,effect of reduction on ability of CD44 to bind HA (in words),[5],inhibit its ability to bind HA
